Molecular target: Factor XIa (Homo sapiens (Human), UniProt P03951)
Assay: Factor XIa enzyme inhibition assay (dose response, fluorogenic AMC substrate)
Format: biochemical
Details: read-out: hFXIa IC50
Summary of the method: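 Fluorogenic progress curves (30 min, 1-min reads, 30° C) were recorded for 0.25 nM FXIa cleaving 50 μM Glp-Pro-Arg-AMC in Hepes pH 7.4 buffer with NaCl and Tween 20. Compounds were serially two-fold diluted, and IC50 was fitted with a Hill equation.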

Chain of Factor XIa (P03951 388-625): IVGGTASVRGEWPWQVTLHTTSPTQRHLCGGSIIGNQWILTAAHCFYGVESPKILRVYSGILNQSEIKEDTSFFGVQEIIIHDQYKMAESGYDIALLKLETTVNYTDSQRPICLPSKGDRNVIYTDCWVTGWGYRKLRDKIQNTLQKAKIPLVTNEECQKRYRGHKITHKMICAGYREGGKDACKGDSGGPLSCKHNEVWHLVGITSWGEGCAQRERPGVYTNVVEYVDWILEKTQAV
Chain of Factor XIa (P03951 19-387 partner): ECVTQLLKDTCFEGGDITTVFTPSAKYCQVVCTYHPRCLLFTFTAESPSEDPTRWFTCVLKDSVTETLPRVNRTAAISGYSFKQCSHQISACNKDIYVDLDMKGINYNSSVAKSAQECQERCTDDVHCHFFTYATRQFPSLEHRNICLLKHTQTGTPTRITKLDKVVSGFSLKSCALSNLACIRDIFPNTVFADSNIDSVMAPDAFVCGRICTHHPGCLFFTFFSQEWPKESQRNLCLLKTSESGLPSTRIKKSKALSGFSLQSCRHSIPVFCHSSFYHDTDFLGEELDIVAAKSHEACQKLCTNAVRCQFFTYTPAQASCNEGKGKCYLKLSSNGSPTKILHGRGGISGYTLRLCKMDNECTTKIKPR

Compound | IC50
CC[C@H](NC(=O)N1C(=O)[C@H](Cc2ccnc(N)c2)[C@H]1C(=O)N(C)c1nccn1C)c1ccc(C)nc1C [Compound 1-96, (2S,3R)-3-((2-aminopyridin-4-yl)methyl)-N2-(1-methyl-1H-imidazol-2-yl)-N1-((S)-1-(2,6-dimethylpyridin-3-yl)propyl)-N2-methyl-4-oxoazetidine-1,2-dicarboxamide] | 100 to 1000 nM
CC[C@@H](NC(=O)N1C(=O)[C@H](Cc2cc(C)nc(N)c2)[C@H]1C(=O)N(C)c1ccnn1C)c1ccc(C)cc1C [Compound 1-161, (2S,3R)-3-((2-amino-6-methylpyridin-4-yl)methyl)-N2-(1-methyl-1H-pyrazol-5-yl)-N1-((R)-1-(2,4-dimethylphenyl)propyl)-N2-methyl-4-oxoazetidine-1,2-dicarboxamide] | < 10 nM
CC[C@@H](NC(=O)N1C(=O)[C@H](Cc2ccnc(N)c2)[C@H]1C(=O)N(C)c1ccnn1C)c1cccc(F)c1F [Compound 1-213, (2S,3R)-3-((2-aminopyridin-4-yl)methyl)-N2-(1-methyl-1H-pyrazol-5-yl)-N1-((R)-1-(2,3-difluorophenyl)propyl)-N2-methyl-4-oxoazetidine-1,2-dicarboxamide] | < 10 nM
CC[C@@H](NC(=O)N1C(=O)[C@H](Cc2ccnc(N)c2)[C@H]1C(=O)N(C)c1ccn(C)n1)c1cccc(C)c1 [Compound 1-14, (2S,3R)-3-((2-aminopyridin-4-yl)methyl)-N2-(1-methyl-1H-pyrazol-3-yl)-N1-((R)-1-(3-methylphenyl)propyl)-N2-methyl-4-oxoazetidine-1,2-dicarboxamide] | 10 to 100 nM
CCCC[C@@H](NC(=O)N1C(=O)[C@H](Cc2ccnc(N)c2)[C@H]1C(=O)N(C)c1ccn(C)n1)C1CCCCC1 [Compound 1-73, (2S,3R)-3-((2-aminopyridin-4-yl)methyl)-N2-(1-methyl-1H-pyrazol-3-yl)-N1-((R)-1-cyclohexylpentyl)-N2-methyl-4-oxoazetidine-1,2-dicarboxamide] | 10 to 100 nM
CNC(=O)N1C(=O)[C@H](Cc2ccnc(N)c2)[C@H]1C(=O)N(C)c1ccn(C)n1 [Compound 1-64, (2S,3R)-3-((2-aminopyridin-4-yl)methyl)-N2-(1-methyl-1H-pyrazol-3-yl)-N1-methyl-N2-methyl-4-oxoazetidine-1,2-dicarboxamide] | 100 to 1000 nM
CC[C@@H](NC(=O)N1C(=O)[C@H](Cc2ccnc(N(C)C)c2)[C@H]1C(=O)N(C)c1cnn(C)c1)c1ccccc1 [Compound 1-5, (2S,3R)-3-((2-dimethylaminopyridin-4-yl)methyl)-N2-(1-methyl-1H-pyrazol-4-yl)-N1-((R)-1-phenylpropyl)-N2-methyl-4-oxoazetidine-1,2-dicarboxamide] | > 1000 nM
CC[C@@H](NC(=O)N1C(=O)[C@H](Cc2cc(C)nc(N)c2)[C@H]1C(=O)N(C)c1cnn(C)c1)c1ccc(C)cc1F [Compound 1-183, (2S,3R)-3-((2-amino-6-methylpyridin-4-yl)methyl)-N2-(1-methyl-1H-pyrazol-4-yl)-N1-((R)-1-(2-fluoro-4-methylphenyl)propyl)-N2-methyl-4-oxoazetidine-1,2-dicarboxamide] | < 10 nM
CC[C@@H](NC(=O)N1C(=O)[C@H](Cc2cc(C)nc(N)c2)[C@H]1C(=O)N(C)c1ccnn1C)c1ccc(C)cc1 [Compound 1-154, (2S,3R)-3-((2-amino-6-methylpyridin-4-yl)methyl)-N2-(1-methyl-1H-pyrazol-5-yl)-N1-((R)-1-(4-methylphenyl)propyl)-N2-methyl-4-oxoazetidine-1,2-dicarboxamide] | < 10 nM
CC[C@@H](NC(=O)N1C(=O)[C@H](Cc2ccnc(NC(=O)OC(C)(C)C)c2)[C@H]1C(=O)N(C)c1cnn(C)c1)c1cccc(Cl)c1 [Compound 1-23, (2S,3R)-3-((2-(((tert-butoxy)carbonyl)amino)pyridin-4-yl)methyl)-N2-(1-methyl-1H-pyrazol-4-yl)-N1-((R)-1-(3-chlorophenyl)propyl)-N2-methyl-4-oxoazetidine-1,2-dicarboxamide] | > 1000 nM

— US11691962B2 (eXIthera Pharmaceuticals, Inc., priority 2018, dated 2023)
